SMILES strings stand for the structures. Counter-ions that a name gives are not always drawn. Like-named read-outs stand apart in the source and are kept apart here.

In one assay the test system is KB-8511 cells. In kind it is cell-based, human. The note with it: for RF (resistance factor: IC50 resistant cell line / IC50 parental KB-31): KB-8511 (Colch selected), 72 hrs, average of three experiments; for resistance profile in words: KB-8511 vs parental KB-31. The protocol: (§1) Data in Table 4 are gathered according to the following methods: Cells (1×10^3) are seeded in 96-well plates and allowed to adhere for 24 hrs. Compounds are then added as two-fold serial dilutions and incubation continued for an additional 72 hrs. Cell numbers at the beginning and at the end of the experiment are estimated by methylene blue staining of cellular protein mass according to conventional methods. The net mass increase of vehicle-treated cells is set as 100% growth. The IC50 is determined as the drug concentration that leads to half-maximal growth inhibition compared to the control. The resistance factor (RF) for a particular drug is calculated by dividing the IC50 determined on the resistant cell line by that determined on the parental KB-31 cells. Data are presented as average±standard deviation (SD) of three separate experiments, except na=not applicable (n<3). Colchicine-selected KB-8511 cells overexpressing P-glycoprotein served as a reference for the classical multi-drug-resistant phenotype.

Another assay relates to 297/C5/0 cells. In kind it is cell-based, human. To be noted: for RF (resistance factor: IC50 resistant cell line / IC50 parental KB-31): 297/C5/0 (EpoA selected), 72 hrs, average of three experiments; for resistance profile in words: 297/C5/0 vs parental KB-31. The procedure: (§2) Anti-proliferative assays are performed basically as described (Meyer et al., Int. J. Cancer 43:851 (1989)). Briefly, cells are seeded at 1.5×10^3 cells/well into 96-well microtiter plates and allowed to adhere by incubation overnight. Compounds are added in serial dilutions on day 1. The plates are then incubated for an additional 3 days, after which the cells are fixed with 3.3% v/v glutaraldehyde, washed with water and stained with 0.05% w/v methylene blue according to conventional methods. After washing, the dye is eluted with 3% HCl and the optical density measured at 665 nm with a SpectraMax Plus (Molecular Devices, Sunnyvale, Calif.) according to manufacturers instructions. IC50 values are determined by mathematical curve-fitting using the SoftPro2.6.1 program (Molecular Devices, Sunnyvale, Calif.) using the formula (OD treated−OD start)/(OD control−OD start)×100. […] IC50 determinations with the cell line 298/D4/40 are performed in the presence of 40 nM epothilone A.
as §1

The subject of another assay is 298/D4/40 cells. In kind it is cell-based, human. To be noted: for RF (resistance factor: IC50 resistant cell line / IC50 parental KB-31): 298/D4/40 (EpoA selected), 72 hrs, in the presence of 40 nM epothilone A; for resistance profile in words: 298/D4/40 vs parental KB-31. The protocol: as §2, §1
A further assay has as its system 315/sc5.9 cells. The class given is cell-based, human. To be noted: for RF (resistance factor: IC50 resistant cell line / IC50 parental KB-31): 315/sc5.9 (EpoB selected), 72 hrs, average of three experiments; for resistance profile in words: 315/sc5.9 vs parental KB-31. The procedure: as §2, §1
For a further assay, the system named is MDA-MB-435 cells. Description: MTS growth inhibition assay. The class given is cell-based. To be noted: Homo sapiens, P-gp substrates, Table 2. The protocol:
(§3) Growth inhibition may be analyzed using conventional methods, for example a MTS assay (PROMEGA, Wis.) may be used. In this assay approximately 4000 cells per well are seeded in 96 well plates in MEM supplemented with 10% fetal calf serum and incubated at 37° C. in 5.0% CO2. After 24 hours, dilutions of drug (concentration range used is between 1 nM and 1000 nM) are added and cells are allowed to incubate with drug for an additional 72 hours. The MTS reagent mixed with PMS (MTS:PMS 20:1 according to manufacturer's instructions) is then added and absorbance quantitated using a Thermomax microplate reader system according to conventional methods (Molecular Devices, Sunnyvale, Calif.). […] Six assays per drug per plate are performed.
Thus, at least two potential mechanisms of epothilone A resistance may exist—a lower resistance mechanism that is cross-resistant to TAXOL® and a higher, epothilone A specific resistance mechanism.

A further assay concerns EA40 cells. Description: MTS growth inhibition assay. In kind it is cell-based. To be noted: for IC50: EA40 cells, P-gp substrates, Table 2; for resistance profile in words: EA40 vs MDA-MB-435 / EA150. The protocol:
as §3, with “performed. […]” for “performed.”
(§4) As such, epothilone resistant cells would have some degree of cross-resistance to other P-gp substrates that could be reversed by P-gp inhibitors. To investigate this possibility, the cytotoxicity of the P-gp substrates, vincristine, doxorubicine and vinblastine is determined against epothilone A resistant cells using the MTS assay. […] When EA20 and resistant MDA/T0.3 cells are incubated with TAXOL® or epothilone A in the presence of [3′-Desoxy-3′-oxo-MeBmt]^1-[Val]^2-Ciclosporin (PSC-833; a P-gp inhibitor which is disclosed in U.S. Pat. No. 5,525,590), the resistance of MDA/T0.3 cells to TAXOL® is reversed but no effect on the resistance of EA20 to epothilone A is observed.

In another assay the test system is MDA/T0.3 cells. Description: MTS growth inhibition assay. The class given is cell-based. The procedure:
Growth inhibition may be analyzed using conventional methods, for example a MTS assay (PROMEGA, Wis.) may be used. In this assay approximately 4000 cells per well are seeded in 96 well plates in MEM supplemented with 10% fetal calf serum and incubated at 37° C. in 5.0% CO2. […] The MTS reagent mixed with PMS (MTS:PMS 20:1 according to manufacturer's instructions) is then added and absorbance quantitated using a Thermomax microplate reader system according to conventional methods (Molecular Devices, Sunnyvale, Calif.). […] Six assays per drug per plate are performed.
as §4
MDA/T0.3 is a clonal subline of MDA-MB-435 cells selected by increasing exposure of MDA-MB-435 cells to TAXOL®. MDA/T0.3 cells express high levels of P-glycoprotein and are resistant to a variety of chemically and functionally unrelated compounds. MDA/T0.3 cells could be sensitized to a variety of cytotoxic agents by treatment with the P-glycoprotein reversing agent PSC-833.

The mark [1] stands for this setting: MDA/T0.3 cells, P-gp substrates, Table 2, read-out: IC50.

For the molecule `O=c1[nH]cc(F)c(=O)[nH]1` [5-FU, 5-Fluorouracil], the “RF (resistance factor: IC50 resistant cell line / IC50 parental KB-31)” value in the assay on KB-8511 cells is given as 1.1; in the assay on 297/C5/0 cells it was 1.2; with 298/D4/40 cells, 0.9; in the assay with 315/sc5.9 cells it was 0.4. The results for the “resistance profile in words” value in the assay on 297/C5/0 cells, in the assay on 298/D4/40 cells and with 315/sc5.9 cells were “Neither cell line is cross-resistant”, “Neither cell line is cross-resistant” and “slightly hypersensitive”, respectively.

In the case of `COc1cccc2c1C(=O)c1c(O)c3c(c(O)c1C2=O)C[C@@](O)(C(C)=O)C[C@@H]3O[C@H]1C[C@H](N)[C@H](O)[C@H](C)O1` [Daunorubicin], the IC50 is 382 ± 101 nM with MDA-MB-435 cells, 224 ± 72 nM in the assay on EA40 cells and greater than 5000 nM in the assay with MDA/T0.3 cells.

Take `CN[C@H]1CCc2cc(OC)c(OC)c(OC)c2-c2ccc(OC)c(=O)cc21` [Demecolcine, demecolcine]: the “resistance profile in words” value with KB-8511 cells is reported as “resistant”; with 297/C5/0 cells it was “hypersensitive”; in the assay with 298/D4/40 cells it was “hypersensitive”; in the assay with 315/sc5.9 cells, “slightly hypersensitive”.

Regarding `C=C/C=C\[C@H](C)[C@H](OC(N)=O)[C@@H](C)[C@H](O)[C@@H](C)C/C(C)=C\[C@H](C)[C@@H](O)[C@@H](C)/C=C\[C@@H](O)C[C@@H]1OC(=O)[C@H](C)[C@@H](O)[C@H]1C` [Discodermolide], the “RF (resistance factor: IC50 resistant cell line / IC50 parental KB-31)” value is recorded as 2.8 in the assay with KB-8511 cells, 1.3 in the assay on 297/C5/0 cells, 0.5 in the assay on 298/D4/40 cells and 1.2 in the assay with 315/sc5.9 cells. Besides, the “resistance profile in words” value in the assay with 297/C5/0 cells and in the assay with 298/D4/40 cells was “not cross-resistant” throughout.

On to `COc1cccc2c1C(=O)c1c(O)c3c(c(O)c1C2=O)C[C@@](O)(C(=O)CO)C[C@@H]3O[C@H]1C[C@H](N)[C@H](O)[C@H](C)O1` [Doxorubicin, doxorubicin], for which the IC50 in the assay on MDA-MB-435 cells was greater than 500 nM; with EA40 cells, 365 ± 200 nM; in the assay with MDA/T0.3 cells (setting [1]), greater than 5000 nM. Moreover, the “resistance profile in words” value in the assay with EA40 cells is “equally sensitive”; in the assay with KB-8511 cells, “resistant”; with 297/C5/0 cells, “Neither cell line is cross-resistant”; in the assay with 298/D4/40 cells, “Neither cell line is cross-resistant”; in the assay on 315/sc5.9 cells, “marginal cross-resistance”. Also, the “RF (resistance factor: IC50 resistant cell line / IC50 parental KB-31)” value was determined as 48.8 in the assay on KB-8511 cells, 1.6 in the assay on 297/C5/0 cells, 1.2 with 298/D4/40 cells and 1.8 in the assay with 315/sc5.9 cells.

With `[NH2][Pt]1([NH2])[O]C(=O)C2(CCC2)C(=O)[O]1` [Paraplatine, Paraplatin], the “RF (resistance factor: IC50 resistant cell line / IC50 parental KB-31)” value is reported as 0.8 with KB-8511 cells, 1.2 in the assay on 297/C5/0 cells, 3.8 in the assay with 298/D4/40 cells and 0.7 with 315/sc5.9 cells. In addition, the “resistance profile in words” value in the assay on 297/C5/0 cells is given as “Neither cell line is cross-resistant”; with 298/D4/40 cells, “very minor increase in the resistance”.

`CC[C@]1(O)C[C@@H]2CN(CCc3c([nH]c4ccccc34)[C@@](C(=O)OC)(c3cc4c(cc3OC)N(C)[C@H]3[C@@](O)(C(=O)OC)[C@H](OC(C)=O)[C@]5(CC)C=CCN6CC[C@]43[C@@H]65)C2)C1` [Vinblastine, Vinblastine sulfate]: the IC50 in the assay on MDA-MB-435 cells was less than 1 nM; in the assay on EA40 cells, less than 1 nM; in the assay on MDA/T0.3 cells (setting [1]), 14 ± 2.7 nM. Also, the “resistance profile in words” value was “equally sensitive” in the assay with EA40 cells, “resistant” in the assay with KB-8511 cells, “hypersensitive” in the assay on 297/C5/0 cells and “hypersensitive” in the assay on 298/D4/40 cells. Besides, the “RF (resistance factor: IC50 resistant cell line / IC50 parental KB-31)” value in the assay with KB-8511 cells was found to be 162.4; with 297/C5/0 cells, 0.7; in the assay on 298/D4/40 cells it was 0.2; in the assay with 315/sc5.9 cells, 0.6.

Regarding `CC[C@]1(O)C[C@H]2CN(CCc3c([nH]c4ccccc34)[C@@](C(=O)OC)(c3cc4c(cc3OC)N(C=O)[C@H]3[C@@](O)(C(=O)OC)[C@H](OC(C)=O)[C@]5(CC)C=CCN6CC[C@]43[C@@H]65)C2)C1` [Vincristine, vincristine], the figures for the IC50 in the assay with MDA-MB-435 cells and in the assay on EA40 cells were 3 ± 2 nM and 4 ± 1.7 nM, respectively. Moreover, the “resistance profile in words” value in the assay with EA40 cells is “equally sensitive”; in the assay with 315/sc5.9 cells, “slightly hypersensitive”.
